A word on the melting point: it is the temperature of the solid-liquid transition.

The subject of the first data set is E. coli GC 2883 (OXA-10 + PSE-2). Kind of data set: Antimicrobial susceptibility testing, microbroth dilution (NCCLS), piperacillin combined with β-lactamase inhibitor. Type of data set: cell-based. As to conditions: MIC of piperacillin combined with a constant amount (4 ug/ml) of the inhibitor; class-D producing E. coli GC 2883 (OXA-10 + PSE-2); 35° C. for 18 hours. Here is the method:
Antimicrobial susceptibility testing. The in vitro activities of the antibiotic, piperacillin in this case, against resistant pathogens expressing class-D enzymes were determined by the microbroth dilution method as recommended by the National Committee for Clinical Laboratory Standards (NCCLS). (NCCLS. 2000. Methods for Dilution Antimicrobial Susceptibility Tests for Bacteria That Grow Aerobically; Approved Standards: M7-A5, vol. 19. National Committee for Clinical Laboratory Standards, Villanova, Pa.). Mueller-Hinton II broth (MHBII)(BBL Cockeysville, Md.), was used for the testing procedure. Microtiter plates containing 50 μL per well of two-fold serial dilutions of piperacillin combined with a constant amount (4 ug/ml) of a B-lactamase inhibitor were inoculated with 50 μL of inoculum to yield the appropriate density (10^5 CFU/mL) in 100 μL final volume. The plates were incubated for 18-22 hours at 35° C. in ambient air. […] The MIC50 data obtained by the above said procedure are enlisted in Table 1. […] Both OXA-10 and PSE-2 are class D β-lactamases. (Bush, K. Jacoby, G. A., Medeiros, A. A. Antimicrob. Agents Chemother., 1995, 39, 1211.)
In general terms: Dilution methods test growth across graded concentrations, often in twofold steps.
On to `CN1CCn2cc(/C=C3/C(=O)N4C(C(=O)[O-])=CS[C@H]34)nc2C1.[Na+]` [Example 2, (5R),(6Z)-6-(7-Methyl-5,6,7,8-tetrahydroimidazo[1,2-a]pyrazin-2-ylmethylene)-7-oxo-4-thia-1-aza-bicyclo[3.2.0]hept-2-ene-2-carboxylic acid, sodium salt], for which the “Minimal Inhibitory Concentration (MIC50) Data” value was 4 µg/mL.

For the compound `O=C([O-])C1=CS[C@@H]2/C(=C\c3cn4c(n3)CNCC4)C(=O)N12.[Na+]` [Example 3, (5R),(6Z)-7-Oxo-6-(5,6,7,8-tetrahydroimidazo[1,2-a]pyrazin-2-ylmethylene)-4-thia-1-azabicyclo[3.2.0]hept-2-ene-2-carboxylic acid, sodium salt], the “Minimal Inhibitory Concentration (MIC50) Data” value is 2 µg/mL.

For the compound `COc1ccc(CN2CCc3sc(/C=C4/C(=O)N5C(C(=O)O)=CS[C@H]45)cc3C2)cc1` [Example 4], the “Minimal Inhibitory Concentration (MIC50) Data” value was found to be 4 µg/mL.

As for `O=C([O-])C1=CS[C@@H]2/C(=C\c3cn4c(n3)CSCC4)C(=O)N12.[Na+]` [Example 5, (5R),(6Z)-6-(5,6-dihydro-8H-imidazo[2,1-c][1.4]thiazin-2-ylmethylene)-7-oxo-4-thia-1-azabicyclo[3.2.0]hept-2-ene-2-carboxylic acid, sodium salt], the “Minimal Inhibitory Concentration (MIC50) Data” value is 2 µg/mL.

Turning to `O=C([O-])C1=CS[C@@H]2/C(=C\c3cn4c(n3)CCC4)C(=O)N12.[Na+]` [Example 6, (5R),(6Z)-6-(6,7-Dihydro-5H-pyrrolo[1,2-a]imidazol-2-ylmethylene)-7-oxo-4-thia-1-aza-bicyclo[3.2.0]hept-2-ene-2-carboxylic acid, sodium salt], the “Minimal Inhibitory Concentration (MIC50) Data” value was found to be 2 µg/mL.

Regarding `O=C([O-])C1=CS[C@@H]2/C(=C\c3cn4c(n3)COCC4)C(=O)N12.[Na+]` [Example 7, (5R),(6Z)-6-(5,6-Dihydro-8H-imidazo[2,1-c][1,4]oxazin-2-ylmethylene)-7-oxo-4-thia-1-azabicyclo[3.2.0]hept-2-ene-2-carboxylic acid, sodium salt], the “Minimal Inhibitory Concentration (MIC50) Data” value is 4 µg/mL.

For the compound `O=C([O-])C1=CS[C@@H]2/C(=C\c3cc4n(n3)CCC4)C(=O)N12.[Na+]` [Example 8, (5R),(6Z)-6-(5,6-Dihydro-4H-pyrrolo[1,2-b]pyrazol-2-ylmethylene)-7-oxo-4-thia-1-azabicyclo[3.2.0]hept-2-ene-2-carboxylic acid, sodium salt], the “Minimal Inhibitory Concentration (MIC50) Data” value is 4 µg/mL.

As for `CN1Cc2nc(/C=C3/C(=O)N4C(C(=O)[O-])=CS[C@H]34)cn2CC1=O.[Na+]` [Example 10, (5R),(6Z)-6-(7-Methyl-6-oxo-5,6,7,8-tetrahydro-imidazo[1,2-a]pyrazin-2-ylmethylene)-7-oxo-4-thia-1-aza-bicyclo[3.2.0]hept-2-ene-2-carboxylic acid sodium salt], the “Minimal Inhibitory Concentration (MIC50) Data” value was determined as 8 µg/mL.

In the case of `O=C([O-])C1=CS[C@@H]2/C(=C\c3cn4c(n3)CN(Cc3ccccc3)CC4)C(=O)N12.[Na+]` [Example 20, (5R),(6Z)-6-(7-Benzyl-5,6,7,8-tetrahydroimidazo[1,2-a]pyrazin-2-ylmethylene)-7-oxo-4-thia-1-azabicyclo[3.2.0]hept-2-ene-2-carboxylic acid, sodium salt], the “Minimal Inhibitory Concentration (MIC50) Data” value is 16 µg/mL.

On to `O=C(O)C1=CS[C@@H]2/C(=C\c3cc4c(s3)CCN(Cc3cccnc3)C4)C(=O)N12` [Example 21], for which the “Minimal Inhibitory Concentration (MIC50) Data” value was 8 µg/mL.

Regarding `O=C(O)C1=CS[C@@H]2/C(=C\c3cc4c(s3)CCN(C(=O)c3cccnc3)C4)C(=O)N12` [Example 22], the “Minimal Inhibitory Concentration (MIC50) Data” value is 16 µg/mL.

As for `O=C(O)C1=CS[C@@H]2/C(=C\c3cc4c(s3)CCN(C(=O)Cc3ccccc3)C4)C(=O)N12` [Example 23], the “Minimal Inhibitory Concentration (MIC50) Data” value turned out to be 8 µg/mL.

As to `O=C([O-])C1=CS[C@@H]2/C(=C\c3cc4n(n3)CCS(=O)(=O)C4)C(=O)N12.[Na+]` [Example 24, (5R),(6Z)-6-(5,5-Dioxo-4,5,6,7-tetrahydro-5λ^6-pyrazolo[5,1-c][1,4]thiazin-2-ylmethylene)-7-oxo-4-thia-1-azabicyclo[3.2.0]hept-2-ene-2-carboxylic acid, sodium salt], the “Minimal Inhibitory Concentration (MIC50) Data” value was 4 µg/mL.

As for `O=C([O-])C1=CS[C@@H]2/C(=C\c3cc4n(n3)CCNC4)C(=O)N12.[Na+]` [Example 25, (5R),(6Z)-7-Oxo-6-(4,5,6,7-tetrahydropyrazolo[1,5-a]pyrazin-2-ylmethylene)-4-thia-1-aza-bicyclo[3.2.0]hept-2-ene-2-carboxylic acid, sodium salt], the “Minimal Inhibitory Concentration (MIC50) Data” value is 4 µg/mL.

With `CC1(C)Cc2cc(/C=C3/C(=O)N4C(C(=O)[O-])=CS[C@H]34)nn2C1.[Na+]` [Example 26, (5R)(6Z)-6-(5,5-Dimethyl-4H-1.6a-diazapentalen-2-ylmethylene)-7-oxo-4-thia-1-azabicyclo[3.2.0]hept-2-ene-2-carboxylic acid, sodium salt], the “Minimal Inhibitory Concentration (MIC50) Data” value is 4 µg/mL.

As to `O=C([O-])C1=CS[C@@H]2/C(=C\c3cc4c(o3)CCC4)C(=O)N12.[Na+]` [Example 27, (5R),(6Z)-6-(5,6-Dihydro-4H-cyclopenta[b]furan-2-ylmethylene)-7-oxo-4-thia-1-azabicyclo[3.2.0]hept-2-ene-2-carboxylic acid, sodium salt], the “Minimal Inhibitory Concentration (MIC50) Data” value was found to be 2 µg/mL.

On to `CC1(C)Cn2cc(/C=C3/C(=O)N4C(C(=O)[O-])=CS[C@H]34)nc2CN1.[Na+]` [Example 29, (5R),(6Z)-6-(6,6-Dimethyl-5,6,7,8-tetrahydroimidazo[1,2-a]pyrizin-2-ylmethylene)-7-oxo-4-thia-1-azabicyclo[3.2.0]hept-2-ene-2-carboxylic acid, sodium salt], for which the “Minimal Inhibitory Concentration (MIC50) Data” value is 4 µg/mL.

Take `O=C(O)C1=CS[C@@H]2/C(=C\c3cnc4n3CCSC4)C(=O)N12` [Example 30, (5R),(6Z)-6-(5,6-Dihydro-8-H-imidazo[2,1-c][1,4]thiazin-3-ylmethylene)-7-oxo-4-thia-1-azabicyclo[3.2.0]hept-2-ene-2-carboxylic acid]: the “Minimal Inhibitory Concentration (MIC50) Data” value stood at 4 µg/mL.

For `CC(=O)N1CCc2sc(/C=C3/C(=O)N4C(C(=O)O)=CS[C@H]34)cc2C1` [Example 33, (5R,6Z)-6-[(5-acetyl-4,5,6,7-tetrahydrothieno[3,2-c]pyridin-2-yl)methylene]-oxo-4-thia-1-azabicyclo[3.2.0.]hept-2-ene-2-carboxylic acid], the “Minimal Inhibitory Concentration (MIC50) Data” value was 16 µg/mL.

Take `O=C([O-])C1=CS[C@@H]2/C(=C\c3cc4n(n3)CCCO4)C(=O)N12.[Na+]` [Example 35, (5R)(6Z)-6-(6,7-5H-Dihydropyrazolo[5,1-b]oxazin-2-Ylmethylene)-7-oxo-4-thia-1-azabicyclo[3.2.1]hept-2-ene-2-carboxylic acid, sodium salt]: the “Minimal Inhibitory Concentration (MIC50) Data” value came to 2 µg/mL.

Consider `O=C([O-])CCC(=O)N1CCn2nc(/C=C3/C(=O)N4C(C(=O)[O-])=CS[C@H]34)cc2C1.[Na+].[Na+]` [Example 36, (5R),(6Z)-6-[5-(3-carboxypropionyl)-4,5,6,7-tetrahydropyrazolo[1,5-a]pyrazin-2-ylmethylene]-7-oxo-4-thia-1-azabicyclo[3.2.0]hept-2-ene-carboxylic acid, disodium salt], for which the “Minimal Inhibitory Concentration (MIC50) Data” value was 4 µg/mL.

Take `COCC(=O)N1CCn2nc(/C=C3/C(=O)N4C(C(=O)[O-])=CS[C@H]34)cc2C1.[Na+]` [Example 37, (5R),(6Z)-6-[5-(2-methoxyacetyl)-4,5,6,7-tetrahydropyrazolo[1,5-a]pyrazin-2-ylmethylene]-7-oxo-4-thia-1-azabicyclo[3.2.0]hept-2-ene-carboxylic acid, sodium salt]: the “Minimal Inhibitory Concentration (MIC50) Data” value is 2 µg/mL.

As to `O=C([O-])C1=CS[C@@H]2/C(=C\c3cc4n(n3)CCN(C3=NCCS3)C4)C(=O)N12.[Na+]` [Example 38, (5R),(6Z)-6-[5-(4,5-Dihydrothiazol-2-yl)-4,5,6,7-tetrahydropyrazolo[1,5-a]pyrazin-2-ylmethylene]-7-oxo-4-thia-1-azabicyclo[3.2.0]hept-2-ene-2-carboxylic acid sodium salt], the “Minimal Inhibitory Concentration (MIC50) Data” value turned out to be 2 µg/mL.

Test system in a further data set: not given
Assay: not given
Conditions: not given
Regarding `O=C(O)C1=CS[C@@H]2/C(=C\c3cc4c(s3)CCN(Cc3ccccc3)C4)C(=O)N12` [Example 1, (5R,6Z)-6-[(5-benzyl-4,5,6,7-tetrahydrothieno[3,2-c]pyridin-2-yl)methylene]-7oxo-4-thia-1-azabicyclo[3.2.0]hept-2-ene-2-carboxylic acid], the melting point was determined as 198 °C.

As to `CN1CCc2sc(C=C3C(=O)N4C(C(=O)O)=CSC34)cc2C1` (centres unmarked) [Example 17, 6-(5-Methyl-4,5,6,7-tetrahydro-thieno[3,2-c]pyridin-2-ylmethylene)-7-oxo-4-thia-1-aza-bicyclo[3.2.0]hept-2-ene-2-carboxylic acid], the melting point is more than 250 °C.

In turn, `CCOC(=O)N1CCc2sc(C=C3C(=O)N4C(C(=O)O)=CSC34)cc2C1` (centres unmarked) [Example 18, 2-(2-Carboxy-7-oxo-4-thia-1-aza-bicyclo[3.2.0]hept-2-en-6-ylidenemethyl)-6,7-dihydro-4H-thieno[3,2-c]pyridine-5-carboxylic acid ethyl ester] displayed a melting point of more than 250 °C.
